{"source": "patent US20230151106A1", "about": "“OFATUMUMAB FOR TREATING MS WHILE MAINTAINING SERUM IgG” (NOVARTIS AG, priority 2020, published 2023)", "key": {"[1]": {"tested_on": "serum IgM", "assay": "Serum IgM levels in ASCLEPIOS I/II (Pool C2)", "type": "in vivo, human", "details": "any time post-baseline, FIG. 9", "method": "In the present application serum Ig levels can preferably be determined by immunoturbidimetry. Preferably a Roche cobas® Analyzer was used, especially module c of the cobas® analyser.\n(§1) Serum samples were preferably kept at 2-8° C. before measurement.\nASCLEPIOS I and II are double-blind, double-dummy, active comparator-controlled, parallel-group, innovative, adaptive design, multicentre trials. Patients were randomised (1:1) to receive either ofatumumab 20 mg sc injections every 4 weeks (after an initial loading regimen of 20 mg sc doses on Days 1, 7 and 14) or teriflunomide 14 mg orally once daily, for up to 30 months."}, "[2]": {"tested_on": "serum IgG", "assay": "Serum IgG levels in ASCLEPIOS I/II (Pool C2)", "method": "In the present application serum Ig levels can preferably be determined by immunoturbidimetry. Preferably a Roche cobas® Analyzer was used, especially module c of the cobas® analyser. In a preferred embodiment Ig levels can be determined by using a cobas® c 311 analyzer. It is further preferred that IgG measurements are carried out as described in the cobas® leaflet “IGG-2 Tina-quant IgG Gen. 2”, preferably version 11.0 dated 2016-02 and IgM measurements as described in the leaflet “IGM-2 Tina-quant IgM Gen. 2”, preferably version 13.0 dated 2018-11.\nas §1\nPatients were randomised (1:1) to receive either ofatumumab 20 mg sc injections every 4 weeks (after an initial loading regimen of 20 mg sc doses on Days 1, 7 and 14) or teriflunomide 14 mg orally once daily, for up to 30 months.\n(§2) Serum IgG/IgM levels were monitored at baseline, Week (W) 4, W12 and every 12 weeks, see FIG. 1."}, "[3]": {"tested_on": "CD19+ B-cells", "assay": "CD19+ B-cell depletion in ASCLEPIOS", "type": "in vivo, human", "method": "ASCLEPIOS I and II are double-blind, double-dummy, active comparator-controlled, parallel-group, innovative, adaptive design, multicentre trials. Patients were randomised (1:1) to receive either ofatumumab 20 mg sc injections every 4 weeks (after an initial loading regimen of 20 mg sc doses on Days 1, 7 and 14) or teriflunomide 14 mg orally once daily, for up to 30 months. […] Patients aged 18-55 years with an Expanded Disability Status Scale (EDSS) score (according to Kurtzke, Neurology. 1983, Nov; 33(11): 1444-52) of 0-5.5 at screening who experienced ≥1 relapse in the past year or ≥2 relapses in the past 2 years or a positive gadolinium-enhancing (Gd+) MRI scan during the year before randomisation were included."}, "[4]": {"tested_on": "multiple sclerosis patients", "assay": "Infections in relation to IgM/IgG levels <LLN vs >=LLN in ofatumumab MS studies", "quoted_text": "as §2"}, "[5]": {"tested_on": "multiple sclerosis patients", "details": "in vivo; cited from earlier work"}, "[6]": {"tested_on": "MS patients", "details": "cited from earlier work"}, "[7]": {"tested_on": "IgG levels", "assay": "Metanalysis of Example 1 versus Derfuss et al. (pooled OPERA), IgG levels", "type": "in vivo, human", "details": "in vivo", "from_the_text": "In a metanalysis, the results of Example 1 and the results obtained by Derfuss et al. were compared."}, "[8]": {"details": "anytime during post baseline visit"}, "[9]": {"details": "Ofatumumab N=134, Teriflunomide N=214"}, "[10]": {"details": "after the last infusion, 51 patients from MS clinical studies"}}, "data": [{"compound": "C/C(O)=C(\\C#N)C(=O)Nc1ccc(C(F)(F)F)cc1", "note": "[teriflunomide]", "values": [{"measurement": "patients with IgM levels on or above the LLN", "setting": "[1]", "value": "> 90", "unit": "%"}, {"measurement": "change in mean serum IgG value from baseline", "setting": "[2]; Week 96", "value": -0.421, "unit": "g/L"}, {"measurement": "decrease in mean IgG value from baseline", "setting": "[2]; Week 96", "value": 4.1, "unit": "%"}, {"measurement": "patients with IgG levels on or above the LLN", "setting": "[2]; any time post-baseline, FIG. 9", "value": "> 77", "unit": "%"}, {"measurement": "patients with IgG below LLN, n/N", "setting": "[2]; [8]", "value": "214/934"}, {"measurement": "proportion of patients with IgG below LLN", "setting": "[2]; [8]", "value": 22.9, "unit": "%"}, {"measurement": "patients with CD19+ B-cells below LLN", "setting": "[3]; Week 1", "value": "(2.0) %"}, {"measurement": "patients with CD19+ B-cells below LLN, n/M", "setting": "[3]; Week 1", "value": "9/443"}, {"measurement": "patients with CD19+ B-cells below LLN", "setting": "[3]; Week 2", "value": "(1.6) %"}, {"measurement": "patients with CD19+ B-cells below LLN, n/M", "setting": "[3]; Week 2", "value": "7/437"}, {"measurement": "patients with CD19+ B-cells below LLN", "setting": "[3]; Week 4", "value": "(3.2) %"}, {"measurement": "patients with CD19+ B-cells below LLN, n/M", "setting": "[3]; Week 4", "value": "14/444"}, {"measurement": "patients with CD19+ B-cells below LLN", "setting": "[3]; Week 12", "value": "(3.0) %"}, {"measurement": "patients with CD19+ B-cells below LLN, n/M", "setting": "[3]; Week 12", "value": "13/439"}, {"measurement": "patients with CD19+ B-cells below LLN", "setting": "[3]; Week 24", "value": "(2.1) %"}, {"measurement": "patients with CD19+ B-cells below LLN, n/M", "setting": "[3]; Week 24", "value": "9/419"}, {"measurement": "patients with CD19+ B-cells below LLN", "setting": "[3]; Week 36", "value": "(1.2) %"}, {"measurement": "patients with CD19+ B-cells below LLN, n/M", "setting": "[3]; Week 36", "value": "5/408"}, {"measurement": "patients with CD19+ B-cells below LLN", "setting": "[3]; Week 48", "value": "(1.3) %"}, {"measurement": "patients with CD19+ B-cells below LLN, n/M", "setting": "[3]; Week 48", "value": "5/394"}, {"measurement": "patients with CD19+ B-cells below LLN", "setting": "[3]; Week 60", "value": "(2.1) %"}, {"measurement": "patients with CD19+ B-cells below LLN, n/M", "setting": "[3]; Week 60", "value": "8/382"}, {"measurement": "patients with CD19+ B-cells below LLN", "setting": "[3]; Week 72", "value": "(1.0) %"}, {"measurement": "patients with CD19+ B-cells below LLN, n/M", "setting": "[3]; Week 72", "value": "3/304"}, {"measurement": "patients with CD19+ B-cells below LLN", "setting": "[3]; Week 84", "value": "(2.1) %"}, {"measurement": "patients with CD19+ B-cells below LLN, n/M", "setting": "[3]; Week 84", "value": "4/195"}, {"measurement": "patients with CD19+ B-cells below LLN", "setting": "[3]; Week 96", "value": "(0.8) %"}, {"measurement": "patients with CD19+ B-cells below LLN, n/M", "setting": "[3]; Week 96", "value": "1/121"}, {"measurement": "patients with CD19+ B-cells below LLN", "setting": "[3]; Week 108", "value": "(4.5) %"}, {"measurement": "patients with CD19+ B-cells below LLN, n/M", "setting": "[3]; Week 108", "value": "3/67"}, {"measurement": "patients with CD19+ B-cells below LLN, n/M", "setting": "[3]; Week 120", "value": "0/16"}, {"measurement": "patients with B-cells below LLN", "setting": "[3]; throughout the study Treatment epoch", "value": "up to 4.5%"}, {"measurement": "Infections observed after the first drop of IgG<LLN", "setting": "[4]; [9]", "value": 36.4, "unit": "%"}, {"measurement": "Infections observed after the first drop of IgG<LLN, number of patients", "setting": "[4]; [9]", "value": 78}, {"measurement": "patients who reported an infection post study drug discontinuation", "setting": "[4]; among patients who discontinued treatment for Ig decline", "value": "2 of 7"}]}, {"compound": "ocrelizumab: anti-CD20 monoclonal antibody with a humanized antibody backbone, approved for relapsing and primary progressive MS", "values": [{"measurement": "approximate mean rate of reduction in serum Ig levels", "setting": "[5]", "value": "3-4 % per year"}, {"measurement": "infection rate, association with IgG, first value", "setting": "[5]", "value": "6.50 /100PY"}, {"measurement": "infection rate, association with IgG, second (vs) value", "setting": "[5]", "value": "2.11 /100PY"}, {"measurement": "infection rate, association with IgM, first value", "setting": "[5]", "value": "3.66 /100PY"}, {"measurement": "infection rate, association with IgM, second (vs) value", "setting": "[5]", "value": "1.88 /100PY"}, {"measurement": "median time for B-cell counts to return to either baseline or LLN", "setting": "[6]; [10]", "value": 72, "unit": "weeks"}, {"measurement": "range of time for B-cell counts to return to either baseline or LLN", "setting": "[6]; [10]", "value": "27-175 weeks"}, {"measurement": "effect on total immunoglobulins", "setting": "[6]; in vivo", "value": "decrease in total immunoglobulins"}, {"measurement": "malignancies compared to control groups", "setting": "[6]; in vivo", "value": "increased number of malignancies"}, {"measurement": "patients whose B-cell counts rose to either baseline or LLN", "setting": "[6]; within 2.5 years after the last infusion", "value": 90, "unit": "%"}, {"measurement": "effect on IgG levels on the long term", "setting": "[7]", "value": "leads to a reduction of IgG levels"}]}]}
